# Laboratory results taken from patent US20160201132A1, “GENE EXPRESSION BIOMARKERS OF LAQUINIMOD RESPONSIVENESS” (Teva Pharmaceutical Industries Ltd., priority 2013, published 2016).
# Experiments:
# TGFB1 = experiment: Western blot verification of TGFB1 (TGFb) protein in PBMC of LAQ-treated RRMS patients; format: in vivo, human
# Protocol: FIG. 5: Expression of TGFB1 in PBMCs of RRMS patients following treatment with LAQ. Protein samples ([…]) were prepared from phenol/ethanol fractions of PBMCs derived from patients after 6 month of LAQ treatment (+) and compared to PBMCs samples of the same patients before treatment (−) (FIGS. 5A and 5C). From each sample 30 ug was separated on 10% SDS-PAGE. Blots were incubated with Rabbit a-TGFb1 (1:250) and mouse Tubulin (1:500). The signal intensities of a protein band and its surrounding background were scanned for each protein and quantified by using Quantity One 4.6.9 software (Bio-Rad Laboratories, Hercules, Calif.). […] The signal intensity of a protein bands were quantified by Quantity One 4.6.9 software. The resultant background-subtracted values of protein expression were normalized to those of Tubulin and then calculated as the relative protein levels for each patient before or after LAQ treatment. The blot images in A, B and C are representative of two out of five analyzed patients showing down regulation of TGFb, ITGB1 and CXCR1, respectively as also quantified by densitometry of bands analyzed from five patients. […] Supernatant was collected and protein concentration was determined using a Bradford assay (Pierce, Rockford, Ill., USA) according the manufacturer's guidelines. […]
# PAI-1 (Serpine 1) = experiment: Western blot verification of PAI-1 (Serpine 1) protein in PBMC of LAQ-treated patients; format: in vivo, human; conditions: four out of five patients, after 6 months of LAQ treatment
# Protocol: FIG. 6: Expression of PAI-1 (Serpine 1) in PBMCs of patients following treatment with LAQ. Protein samples were prepared from phenol/ethanol fractions of PBMCs derived from patients after 6 month of LAQ treatment (+) and compare to PBMCs samples of the same patients before treatment (−) (A). From each sample […] was separated on 10% SDS-PAGE. Blots were incubated with Rabbit a-PAI-1 (1:500) and mouse Tubulin (1:500). The signal intensities of a protein band and its surrounding background were scanned for each protein and quantified by using Quantity One 4.6.9 software. The resultant background-subtracted values of protein expression were normalized to those of Tubulin and then plotted as the relative protein levels for each patient with or without LAQ treatment (B).
# For verification of key genes on protein level Western blot analysis was performed. Supernatant was collected and protein concentration was determined using a Bradford assay (Pierce, Rockford, Ill., USA) according the manufacturer's guidelines. Equal amounts of protein were suspended in sample buffer and boiled for 5 min. Cell lysates were resolved on 10% SDS-polyacrylamide gel electrophoresis (PAGE). […] The blots were then washed three times with TBST buffer and analyzed by standard chemiluminescence (Supersignal Kit, Pierce, Rockford, Ill., USA) according to the company's protocol.
# ITGB1 = experiment: Western blot verification of ITGB1 protein in PBMC of LAQ-treated RRMS patients; format: in vivo, human; conditions: six months of LAQ treatment vs baseline, n=5
# Protocol: (§1) FIG. 10: Expression of TGFb, ITGB1 and CXCR1 in RRMS patients treated with LAQ. Protein extracts were prepared from PBMCs samples derived from RRMS patients before treatment (black bars) and compared to PBMCs samples of the same patients after six months of LAQ treatment (white bars). The signal intensity of a protein bands were quantified by Quantity One 4.6.9 software. The resultant background-subtracted values of protein expression were normalized to those of Tubulin and then calculated as the relative protein levels for each patient before or after LAQ treatment. The blot images in A, B and C are representative of two out of five analyzed patients showing down regulation of TGFb, ITGB1 and CXCR1, respectively as also quantified by densitometry of bands analyzed from five patients. Data are presented as mean±SEM. Statistically significant differences are marked in graphs (n=5, paired one-tailed t-test). Protein fractions were purified from PBMC of 5 patients at baseline and after six months of LAQ treatment. Proteins were extracted from TRIZOL fractions and solubilized following the method reported by Hummon et al., 2007 (Hummon et al., 2007). […] Blots were analyzed by standard chemi-luminescence (Supersignal Kit, Pierce, Rockford, Ill., USA) and visualization was done by ChemiDoc™ XRS System (Bio-Rad).
# CXCR1 = experiment: Western blot verification of CXCR1 protein in PBMC of LAQ-treated RRMS patients; format: in vivo, human; conditions: six months of LAQ treatment vs baseline, n=5
# Protocol: as §1
# RRMS patients = conditions: cited from earlier work
compound,measurement,setting,value
"CCN(C(=O)c1c(O)c2c(Cl)cccc2n(C)c1=O)c1ccccc1 [LAQ, 5-chloro-N-ethyl-4-hydroxy-1-methyl-2-oxo-N-phenyl-1,2-dihydroquinoline-3-carboxamide]",down-regulation of TGFB1 protein level (band intensities normalized against Tubulin),"TGFB1; four out of five patients, 6 months of LAQ treatment vs before treatment",20-50%
same,TGFb protein suppressed by (quantification of bands intensities),"TGFB1; six months of LAQ treatment vs baseline, n=5",69.0%
same,reduced expression of PAI-1 protein (band intensities normalized against tubulin),PAI-1 (Serpine 1),30-50%
same,down regulation of ITGB1 protein,ITGB1,40%
same,down regulation of CXCR1 protein,CXCR1,24.7%
same,annualized relapse rate,RRMS patients; RRMS patients treated for 24 months,modestly decreased
same,safety and tolerability profile,"RRMS patients; two phase III trials (BRAVO, ALLEGRO)",favorable
